Data set [1] can be described thus: in vivo. As to conditions: rat, iv, 30 mg/kg. As to the method:
Blood samples (≈220 ul) were collected into heparinized tubes containing 20 μl Sigma protease inhibitor cocktail for mammalian tissues diluted at a 1:9 ratio in 0.1 M PBS (pH=7). The samples were collected at 20, 10 and 0 min before and 1, 2, 4, 8, 16, 32 and 64 min after injection. […] The samples were centrifuged at 3000× g for 15 min at 4° C. and the plasma removed and stored at −80° C. until extraction and assay.

For data set [2] the following is noted: rat, in vivo, iv, 3 mg/kg.
Description: (§1) The ED-50 was 195 pg/tube, and the limit of detection was 2 pg/ml. The intra-assay CV was <10% over the range 0.5 to 25 ng/ml. Any samples reading off the standard curve were further diluted before being re-assayed.
Data set [3] is described as follows: in vivo. The settings on record: rat, iv, 3 mg/kg.
Description: as §1

Bounds are passed on as bounds.

In the case of `NCC(=O)N1CCC[C@H]1C(=O)N[C@@H](CCC(=O)O)C(=O)O` [GPE, glycine-proline-glutamate], in “in vivo [1]”, the “Pro-Glu in plasma by HPLC” value was “could not be identified” and the level at 1 min came out at 33000 ng/mL. Further, in data set [2], the “time for plasma GPE to decline back to baseline values” was at most 8 min. Moreover, the level at 8 min in “in vivo [3]” is 9.8 ± 1.33 ng/mL.

The record behind these values is US20070224165A1, “Neuroprotective Effects of Gly-Pro-Glu Following Intravenous Infusion” (Neuren Pharmaceuticals Limited, priority 2003, published 2007).
